Measurements published in patent publication US7897371B2, “Activation of mutated RAC-PK” (Novartis AG, priority 1995, dated 2011).
Like-named read-outs stand apart in the source and are kept apart here.

Columns and labels:
GSK3 = format: cell-based
MAPKAP kinase-1 = MAPKAP kinase-1 activation by insulin in L6 myotubes; format: cell-based
From the text: (d)—As (c) except that MAPKAP kinase-1 was immunoprecipitated from the lysates and assayed with S6 peptide (filled circles).

RAC-PKα [1] = test system: RAC-PKα
RAC-PKα [2] = format: cell-based, human
MAPKAP kinase-2 = format: cell-based
RAC-PKα [3] = biological target: T1, RAC-PKα (Homo sapiens, UniProt P31749, T308A); format: biochemical; conditions: COS-1 cells
T1 construct: made in house; host or cells: COS-1 cells (DEAE-dextran transfection, serum-starved), immunoprecipitated with 12CA5 antibody

mixed isoforms of PKC = assay: Protein kinase inhibition assay, mixed isoforms of PKC (histone H1 substrate); format: biochemical
Procedure: (§1) After incubation on ice for 10 minutes, the reaction was started by the addition of 10µL of 50 mM magnesium acetate and 0.5 mM [.gamma^32P]ATP (100-200 cpm/pmol). For the assay of mixed isoforms of PKC 20µM diacylglycerol, 0.5 mM CaCl.sub2 and 100µM phosphatidylsene were also present in the incubations. The assays were carried out for 15 minutes at 30° C., then terminated and analyzed as described. See Alessi et al., Methods Enzymol, Vol. 255, pp. 279-290 (1995). One unit of activity was that amount of enzyme that catalyzed the phosphorylation of 1 nmol os substrate in 1 minute. The final concentration of DMSO in each assay was 1% (by vol). […] Mixed isoforms of PKC were assayed using histone H1 as substrate, while MAPKAP-K11 and p70 S6 kinase were assayed using the peptide […] (SEQ ID NO: 14). See Leighton et al. (1995), supra. PK B was assayed with the peptide […] [9] (SEQ ID NO: 5) and MAPKAP-K2 was assayed with the peptide […] (SEQ ID NO: 27). See Stokoe, Caudwell, Cohen and Cohen, Biochem J, Vol. 296, Pt. 3, pp. 843-849 (1993). p42 MAP kinase was assayed using MBP, and MAPKK-1 and c-Raf1 were assayed as described in Alessi et al., Methods Enzymol (1995), supra.

PK B = PK B (Homo sapiens, UniProt P31749); assay: Protein kinase inhibition assay, PK B (peptide […] substrate); format: biochemical
Procedure: as §1

MAPKAP-K1β = biological target: T2, MAPKAP-K1β (Oryctolagus cuniculus, UniProt A0A5F9C4L9); assay: Protein kinase inhibition assay, MAPKAP-K1β (peptide […] substrate); format: biochemical, rabbit
T2 construct: from tissue; host or cells: rabbit skeletal muscle

p70 S6 kinase = biological target: T3, p70 S6 kinase (Rattus norvegicus, UniProt P67999); assay: Protein kinase inhibition assay, p70 S6 kinase (peptide […] substrate); format: biochemical
T3 construct: from tissue; host or cells: rat liver

c-Raf1 = c-Raf1 (Homo sapiens, UniProt P04049); assay: Protein kinase inhibition assay, c-Raf1; format: biochemical
Procedure: as §1

MAPKK-1 = MAPKK-1 (Homo sapiens, UniProt Q02750); assay: Protein kinase inhibition assay, MAPKK-1; format: biochemical
Procedure: as §1

p42 MAP kinase = p42 MAP kinase (Homo sapiens, UniProt P28482); assay: Protein kinase inhibition assay, p42 MAP kinase (MBP substrate); format: biochemical
Procedure: as §1

MAPKAP-K2 = biological target: T4, MAPKAP-K2 (Homo sapiens, UniProt P49137); assay: Protein kinase inhibition assay, MAPKAP-K2 (peptide […] substrate); format: biochemical
T4 construct: cDNA encoding residues 46-400 of human MAPKAP kinase-2 was expressed in E. coli as a GST fusion protein; GST; made in house; host or cells: E. coli
Procedure: as §1

RAC-PKα [4] = format: biochemical, human; conditions: expressed in COS-1 cells, without MAPKAP kinase-2
GSK3β = format: cell-based, human
RAC-PKα [5] = conditions: 293 cells
p70s6k-Myc = assay: Transient cotransfection of RAC-PKα with p70s6k-Myc; format: cell-based; conditions: coexpression
Procedure: To examine this possibility, the regulation of p70^[…] is investigated in a transient cotransfection assay using human 293 cells. RAC-PKα constructs are prepared by ligating the RAC-PKα cDNA [see Jones et al. (1991), supra] in-frame to the initiator methionine, in the mammalian expression vector pECE. The construct is also subcloned into a CMV promoter-driven expression vector. The construct is confirmed by restriction analysis and sequencing. Constructs expressing Myc-tagged p70^[…] are obtained from Dr. G. Thomas, […] Institut, Basel, Switzerland. Constructs are transfected into COS cells using standard procedures.

T3 sequence (P67999 24-525): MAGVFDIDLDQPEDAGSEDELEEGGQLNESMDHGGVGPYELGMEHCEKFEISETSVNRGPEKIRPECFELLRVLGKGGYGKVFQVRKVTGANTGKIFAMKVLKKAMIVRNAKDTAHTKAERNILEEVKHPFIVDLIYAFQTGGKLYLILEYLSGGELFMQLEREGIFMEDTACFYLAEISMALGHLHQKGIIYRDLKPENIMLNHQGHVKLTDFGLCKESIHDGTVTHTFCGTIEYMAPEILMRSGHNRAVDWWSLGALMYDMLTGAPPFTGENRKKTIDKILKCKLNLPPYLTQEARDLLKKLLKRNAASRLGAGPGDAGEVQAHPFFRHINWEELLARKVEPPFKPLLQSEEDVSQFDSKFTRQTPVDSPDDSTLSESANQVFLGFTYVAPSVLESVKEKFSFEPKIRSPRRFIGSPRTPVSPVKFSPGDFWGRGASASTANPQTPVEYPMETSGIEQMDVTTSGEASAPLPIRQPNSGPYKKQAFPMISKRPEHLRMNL
T2 sequence (A0A5F9C4L9 1-740): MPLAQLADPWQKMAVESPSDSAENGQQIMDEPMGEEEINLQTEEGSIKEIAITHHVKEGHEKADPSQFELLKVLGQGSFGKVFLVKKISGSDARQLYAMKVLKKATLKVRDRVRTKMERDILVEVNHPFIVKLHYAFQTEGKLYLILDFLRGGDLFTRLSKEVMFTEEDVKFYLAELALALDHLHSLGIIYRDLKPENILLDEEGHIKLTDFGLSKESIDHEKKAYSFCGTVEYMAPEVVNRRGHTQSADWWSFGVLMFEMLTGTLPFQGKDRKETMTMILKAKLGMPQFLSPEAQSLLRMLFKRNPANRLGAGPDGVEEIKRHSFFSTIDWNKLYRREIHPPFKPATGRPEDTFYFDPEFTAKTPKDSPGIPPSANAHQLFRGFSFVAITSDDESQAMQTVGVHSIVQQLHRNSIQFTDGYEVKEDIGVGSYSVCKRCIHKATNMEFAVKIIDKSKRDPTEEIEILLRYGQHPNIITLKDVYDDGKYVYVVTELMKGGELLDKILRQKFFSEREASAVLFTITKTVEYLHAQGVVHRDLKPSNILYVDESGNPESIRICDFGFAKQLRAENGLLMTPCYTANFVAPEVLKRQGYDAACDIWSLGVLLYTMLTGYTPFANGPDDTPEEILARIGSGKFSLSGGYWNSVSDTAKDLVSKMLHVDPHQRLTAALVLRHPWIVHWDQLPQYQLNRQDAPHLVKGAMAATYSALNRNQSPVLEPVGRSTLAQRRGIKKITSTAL
Sequence of GSK3β (P49841 whole entry): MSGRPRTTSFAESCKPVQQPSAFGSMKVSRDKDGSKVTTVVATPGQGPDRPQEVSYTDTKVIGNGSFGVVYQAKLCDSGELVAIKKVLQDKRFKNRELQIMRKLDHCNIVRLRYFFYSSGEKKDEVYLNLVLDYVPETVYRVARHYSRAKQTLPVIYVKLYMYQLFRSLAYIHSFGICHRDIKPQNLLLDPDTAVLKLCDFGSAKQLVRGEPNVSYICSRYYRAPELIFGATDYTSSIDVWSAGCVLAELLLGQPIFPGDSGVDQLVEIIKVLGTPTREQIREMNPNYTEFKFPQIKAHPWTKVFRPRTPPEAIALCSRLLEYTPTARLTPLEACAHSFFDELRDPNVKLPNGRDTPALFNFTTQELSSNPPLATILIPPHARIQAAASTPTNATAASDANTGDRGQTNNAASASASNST
Sequence of PK B (P31749 whole entry): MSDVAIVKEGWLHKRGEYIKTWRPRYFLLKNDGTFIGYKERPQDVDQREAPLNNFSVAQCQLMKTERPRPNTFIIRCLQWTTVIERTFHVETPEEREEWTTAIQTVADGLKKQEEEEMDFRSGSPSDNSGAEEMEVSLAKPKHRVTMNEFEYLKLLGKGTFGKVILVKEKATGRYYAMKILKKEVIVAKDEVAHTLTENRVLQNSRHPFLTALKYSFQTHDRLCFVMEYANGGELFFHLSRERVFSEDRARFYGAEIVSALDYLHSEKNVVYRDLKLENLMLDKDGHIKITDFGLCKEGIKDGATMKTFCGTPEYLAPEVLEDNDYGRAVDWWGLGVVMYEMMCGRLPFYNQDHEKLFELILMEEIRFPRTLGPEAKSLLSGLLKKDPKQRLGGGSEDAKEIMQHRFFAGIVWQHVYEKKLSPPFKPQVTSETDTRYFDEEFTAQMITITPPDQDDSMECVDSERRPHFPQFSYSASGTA
Sequence of c-Raf1 (P04049 whole entry): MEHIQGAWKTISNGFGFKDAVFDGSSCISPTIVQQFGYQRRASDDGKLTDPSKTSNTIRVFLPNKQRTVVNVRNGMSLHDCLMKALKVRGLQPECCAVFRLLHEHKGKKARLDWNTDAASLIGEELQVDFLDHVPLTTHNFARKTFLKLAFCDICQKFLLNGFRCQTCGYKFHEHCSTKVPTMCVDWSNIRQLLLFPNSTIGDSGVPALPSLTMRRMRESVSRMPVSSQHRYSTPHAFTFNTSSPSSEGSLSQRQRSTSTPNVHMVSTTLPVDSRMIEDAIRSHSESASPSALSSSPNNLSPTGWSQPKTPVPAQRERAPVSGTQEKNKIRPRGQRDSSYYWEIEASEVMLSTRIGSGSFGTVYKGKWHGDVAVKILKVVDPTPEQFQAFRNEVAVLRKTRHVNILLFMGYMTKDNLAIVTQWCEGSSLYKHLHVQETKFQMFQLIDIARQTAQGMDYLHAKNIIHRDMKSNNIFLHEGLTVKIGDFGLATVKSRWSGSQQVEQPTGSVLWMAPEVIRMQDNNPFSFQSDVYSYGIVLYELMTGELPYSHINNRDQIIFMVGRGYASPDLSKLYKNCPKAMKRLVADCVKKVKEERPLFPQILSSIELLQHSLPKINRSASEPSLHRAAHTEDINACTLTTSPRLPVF
Sequence of p42 MAP kinase (P28482 whole entry): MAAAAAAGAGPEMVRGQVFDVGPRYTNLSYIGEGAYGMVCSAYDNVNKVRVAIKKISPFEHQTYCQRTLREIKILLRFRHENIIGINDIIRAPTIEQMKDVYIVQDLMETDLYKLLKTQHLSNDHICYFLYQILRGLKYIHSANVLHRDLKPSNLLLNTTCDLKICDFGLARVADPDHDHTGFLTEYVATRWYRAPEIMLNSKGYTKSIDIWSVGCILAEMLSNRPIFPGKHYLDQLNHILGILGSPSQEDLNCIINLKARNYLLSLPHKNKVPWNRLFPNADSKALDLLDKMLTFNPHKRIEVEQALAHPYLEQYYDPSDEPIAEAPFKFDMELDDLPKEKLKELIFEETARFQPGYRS
Sequence of MAPKK-1 (Q02750 whole entry, species assumed): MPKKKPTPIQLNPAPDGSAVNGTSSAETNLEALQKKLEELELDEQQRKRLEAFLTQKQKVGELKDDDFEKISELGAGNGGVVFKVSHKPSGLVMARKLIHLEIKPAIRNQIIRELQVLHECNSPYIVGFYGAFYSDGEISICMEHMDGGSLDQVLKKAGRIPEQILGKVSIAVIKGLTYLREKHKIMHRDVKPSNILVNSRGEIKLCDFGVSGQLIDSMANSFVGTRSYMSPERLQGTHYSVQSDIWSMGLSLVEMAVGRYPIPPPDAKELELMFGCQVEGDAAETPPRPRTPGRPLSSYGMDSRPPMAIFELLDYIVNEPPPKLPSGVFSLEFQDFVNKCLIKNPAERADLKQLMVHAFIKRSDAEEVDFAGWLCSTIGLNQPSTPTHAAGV
T1 sequence (P31749 whole entry T308A): as the sequence (P31749 whole entry) above, with T308A counted along it
T4 sequence (P49137 46-400): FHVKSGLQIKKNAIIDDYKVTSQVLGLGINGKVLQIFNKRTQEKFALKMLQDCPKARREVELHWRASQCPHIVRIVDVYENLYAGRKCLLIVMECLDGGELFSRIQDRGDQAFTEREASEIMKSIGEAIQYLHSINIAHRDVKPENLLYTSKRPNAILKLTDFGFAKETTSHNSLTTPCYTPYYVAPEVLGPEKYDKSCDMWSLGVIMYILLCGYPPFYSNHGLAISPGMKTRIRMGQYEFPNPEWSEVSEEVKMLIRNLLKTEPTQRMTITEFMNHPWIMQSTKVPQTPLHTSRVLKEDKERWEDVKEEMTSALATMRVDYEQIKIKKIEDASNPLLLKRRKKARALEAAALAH

For `COc1cccc(-c2cc(=O)c3ccccc3o2)c1N` [PD 98059], the “Effect on inhibition of GSK3 by insulin” value (GSK3) was “unaffected”, the “Effect on activation of MAPKAP kinase-1” value (MAPKAP kinase-1) was “prevented” and the “Effect on insulin activation of RAC-PK” value (RAC-PKα [1]) was “essentially unaffected”.

With `C[S+]([O-])c1ccc(-c2nc(-c3ccncc3)c(-c3ccc(F)cc3)[nH]2)cc1` (stereo not drawn) [SB 203580] the “Effect on activation of RAC-PKα by insulin or IGF-1” value (RAC-PKα [2]) was “had no effect” and the “Effect on activation of MAPKAP kinase-2” value (MAPKAP kinase-2) was “prevented”.

In the case of “HA-308A RAC-PKα: HA-tagged RAC-PKα with Thr308 changed to Ala”, the “Activity as percentage of unstimulated WT enzyme” value (RAC-PKα [3]) is reported as “about 40%”.

For `Cn1cc(C2=C(c3cn(CCCSC(=N)N)c4ccccc34)C(=O)NC2=O)c2ccccc21` [Ro 318220], the IC50 (mixed isoforms of PKC) was 5 nM, the IC50 (PK B) was 1000 nM and the IC50 (MAPKAP-K1β; read-out: IC50, MAPKAP-K1β) was 3 nM. For the same molecule, the IC50 (p70 S6 kinase) was 15 nM, the “Inhibition of c-Raf1 in vitro” value (c-Raf1) was “not inhibited significantly” and the “Inhibition of MAPKK-1 in vitro” value (MAPKK-1) was “not inhibited significantly”. The “Inhibition of p42 MAP kinase in vitro” value (p42 MAP kinase) was “not inhibited significantly” and the “Inhibition of MAPKAP-K2 in vitro” value (MAPKAP-K2) was “not inhibited significantly”.

With `CN(C)CCCn1cc(C2=C(c3c[nH]c4ccccc34)C(=O)NC2=O)c2ccccc21` [GF 109203X] the IC50 (mixed isoforms of PKC) was 30 nM, the “Inhibition of PK B in vitro” value (PK B) was “without inhibiting” and the IC50 (MAPKAP-K1β; read-out: IC50, MAPKAP-K1 B) was 50 nM. The IC50 (p70 S6 kinase) was 100 nM, the “Inhibition of c-Raf1 in vitro” value (c-Raf1) was “without inhibiting” and the “Inhibition of MAPKK-1 in vitro” value (MAPKK-1) was “without inhibiting”. For the same molecule, the “Inhibition of p42 MAP kinase in vitro” value (p42 MAP kinase) was “without inhibiting”.

For “HA-308D/473D RAC-PK: RAC-PKα with both Thr308 and Ser473 mutated to Asp, constitutively active”, the “Activity relative to unstimulated (dephosphorylated) WT HA-RAC-PKα” value (RAC-PKα [4]) was 18 fold, the “Increase in GSK3 activity on PP2A treatment” value (GSK3β) was 85% and the “Activity relative to WT HA-RAC-PKα in unstimulated cells” value (RAC-PKα [5]) was 40 fold.

B1: RAC-PKα: human RAC protein kinase α, wild type, SEQ ID NO. 3 (protein)
chain: MNDVAIVKEGWLHKRGEYIKTWRPRYFLLKNDGTFIGYKERPQDVEQRESPLNNFSVAQCQLMKTERPRPNTFIIRCLQWTTVIERTFHVETPEEREEWTTAIQTVADGLKRQEEETMDFRSGSPSDNSGAEEMEVALAKPKHRVTMNEFEYLKLLGKGTFGKVILVKEKATGRYYAMKILKKEVIVAKDEVAHTLTENRVLQNSRHPFLTALKYSFQTHDRLCFVMEYANGGELFFHLSRERVFSEDRARFYGAEIVSALDYLHSEKNVVYRDLKLENLMLDKDGHIKITDFGLCKEGIKDGATMKTFCGTPEYLAPEVLEDNDYGRAVDWWGLGVVMYEMMCGRLPFYNQDHEKLFELILMEEIRFPRTLGPEAKSLLSGLLKKDPTQRLGGGSEDAKEIMQHRFFANIVWQDVYEKKLSPPFKPQVTSETDTRYFDEEFTAQMITITPPDQDDSMECVDSERRPHFPQFSYSASGTA
In the case of B1, the “Increase of basal p70s6k-Myc activity” value (p70s6k-Myc) is reported as 3.5 fold, the “Increase of insulin-stimulated p70s6k-Myc activity” value (p70s6k-Myc) is reported as 3 fold and the “Increase in GSK3 activity on PP2A treatment” value (GSK3β) is reported as 68%.
